Patent publication US20040186098A1 (Amgen Inc., priority 1997, published 2004)

Columns and labels:
hair cells = assay: Intramiddle ear neomycin-induced ototoxicity, compound given systemically (subcutaneous), hair cell loss; assay type: in vivo, guinea pig; settings: 10 mg s.c. at day 0, 2 and 7
Procedure: Twenty guinea pigs were treated either with sensorineurotrophic compound or vehicle prior to administration of the ototoxin. Ten of the guinea pigs were subcutaneously injected with freshly made sensorineurotrophic compound solution. On the day of injection, 100 mg of the sensorineurotrophic compound was dissolved in 1 ml of ethanol, then 20% of the Intralipids solution was added to make a final volume of 3 ml. The final sensorineurotrophic compound concentration was 10 mg/0.3 ml. Each animal was subcutaneously injected with 0.3 ml of the sensorineurotrophic compound solution at day 0, day 2 and day 7. Another 10 animals were subcutaneously injected with 0.3 ml of the vehicle (20% Intralipids), individually at day 0, day 2 and day 7.
At day 2, guinea pigs used in this study were administered neomycin or neomycin vehicle in the middle ear.
Animals were anesthetized with intramuscular injection of a mixture of ketamine (80 mg/kg) and xylazine (4 mg/kg). Through a post-auricular incision, the right bulla was identified. A hole was drilled to open the middle ear cavity (care was taken not to injure the tympanic annulus or ossicles). A piece of gelfoam (˜2 mm^3) was soaked with neomycin solution (fresh made at a concentration of 50 mg/ml) and was inserted into the round window niche. The remaining neomycin solution (˜100 μl) was then injected into the middle ear cavity. […]

outer hair cells (OHC) = assay: Intramiddle ear neomycin-induced ototoxicity, compound given into the middle ear, outer hair cell loss; assay type: in vivo, guinea pig; settings: for hair cells (protected) after neomycin: 5 mg neomycin, 14 days after second surgery
Procedure: Twenty guinea pigs used in this study were divided into two groups: 10 animals received 10 ng and 10 received 1 ng of the sensorineurotrophic compound.
Sensorineurotrophic compound stock A: A stock solution of sensorineurotrophic compound at 1 mg/10 ml in 100% ethanol was prepared and then diluted and mixed in Intralipid at 10 ng/100 μl.
Sensorineurotrophic compound stock B: A stock solution of sensorineurotrophic compound at 1 mg/100 ml in 100% ethanol was prepared and then diluted and mixed in 20% Intralipid at 1 ng/100 μl.
Animals were anesthetized with an intramuscular injection of a mixture of ketamine (80 mg/kg) and xylazine (4 mg/kg). Through a post-auricular incision, the right bulla was identified. A hole was drilled to open the middle ear cavity (care was taken not to injure the tympanic annulus or ossicles). A piece of gelfoam (˜2 mm^3) soaked with the sensorineurotrophic compound solution was inserted into the round window niche. The remaining sensorineurotrophic compound solution (˜100 μl) then was injected into the middle ear cavity. In the 10 ng dose group, 100 μl of sensorineurotrophic compound stock A was administered; and in the 1 ng dose group, 100 μl of sensorineurotrophic compound stock B was administered to the middle ear cavity. The hole was covered with a piece of clear plastic sheet which was stuck on the skull with a superglue. The incision was closed with clips. The same procedure was performed at the left bulla, but 100 μl of vehicle solution instead of sensorineurotrophic compound solution was administered. The animals were maintained in the prone position until they woke up to ensure filling of the middle ear cavity.
After two days, the animals received a second middle ear administration of sensorineurotrophic compound or vehicle together with neomycin. Solutions were prepared for the two groups of animals as follows:
Solution A: Neomycin was dissolved in sensorineurotrophic compound stock A described above. The final concentration of neomycin was 5 mg and the sensorineurotrophic compound concentration was 10 ng in a 100 μl vehicle solution.
Solution B: Neomycin was dissolved in sensorineurotrophic compound stock B described above. The final concentration of neomycin was 5 mg and the concentration of sensorineurotrophic compound was 1 ng in a 100 μl vehicle solution.
Solution C: Neomycin was dissolved in 20% Intralipid to a final concentration of 5 mg in 100 μl vehicle.
The plastic cover sheet on the bulla window was removed and the middle ear cavity was exposed. The old sensorineurotrophic compound or vehicle was sucked off and the old gelfoam was removed from the round window niche. A piece of gelfoam with fresh stock solution containing sensorineurotrophic compound and neomycin was administered to the round window niche, and the remaining solution (˜100 μl, solution A for the 10 ng dose group and solution B for the 1 ng dose group, respectively) was injected into the middle ear cavity of the right bulla.
Solution C (100 μl) was administered to the left ear for both groups in the same way.
Fourteen days after the second surgery, animals were perfused transcardially with a PBS flush followed by a fixative of 4% paraformaldehyde in 0.1M PBS. Immediately following the perfusion, the temporal bone was removed from the head. The bulla was opened and the cochlea was exposed. The apex was opened and the membrane of the round and oval windows was punched. The fixative solution was gently infused into the perilymphatic space through the apex hole and then allowed to flow out from windows. Then the cochleae were post-fixed in the same fixative solution for at least one day.
To identify and count hair cells in the organ of Corti, a direct immunostaining method was used to label the actin present naturally in the stereocilia bundles of the hair cells. The cochlea was dissected and the perilymphatic space was fully exposed. […]

In the case of CCC(C)(C)C(=O)C(=O)N1CCC[C@H]1C(=O)OCCCc1cccnc1 [Compound I], the “difference in the loss of hair cells between vehicle and treated animals” value (hair cells; 5 mg neomycin middle ear at day 2, day 16) is reported as roughly 31%, the hair cell loss (hair cells; 5 mg neomycin middle ear, vehicle animals about 75%) is reported as “about 45%” and the “hair cells (protected) after neomycin” value (outer hair cells (OHC); 1 ng in the middle ear) is reported as roughly 70%. For the same compound, the “Neomycin-induced OHC Loss (%), Right (Treated), mean ± SEM” value (outer hair cells (OHC); 1 ng intramiddle ear, turn-1, n = 7) was 8.85 ± 1.47%, the “Neomycin-induced OHC Loss (%), Right (Treated), mean ± SEM” value (outer hair cells (OHC); 1 ng intramiddle ear, turn-2, n = 7) was 4.01 ± 0.53% and the “Neomycin-induced OHC Loss (%), Right (Treated), mean ± SEM” value (outer hair cells (OHC); 1 ng intramiddle ear, turn-3, n = 7) was 0.92 ± 0.10%. For the same compound, the “Neomycin-induced OHC Loss (%), Right (Treated), mean ± SEM” value (outer hair cells (OHC); 1 ng intramiddle ear, turn-4, n = 7) was 1.67 ± 1.25%, the “Neomycin-induced OHC Loss (%), Right (Treated), mean ± SEM” value (outer hair cells (OHC); 1 ng intramiddle ear, whole cochlea, n = 7) was 3.86 ± 0.37% and the “hair cells (protected) after neomycin” value (outer hair cells (OHC); 10 ng in the middle ear) was “around 75%”. The “Neomycin-induced OHC Loss (%), Right (Treated), mean ± SEM” value (outer hair cells (OHC); 10 ng intramiddle ear, turn-1, n = 9) was 15.47 ± 6.05%, the “Neomycin-induced OHC Loss (%), Right (Treated), mean ± SEM” value (outer hair cells (OHC); 10 ng intramiddle ear, turn-2, n = 9) was 13.93 ± 10.75% and the “Neomycin-induced OHC Loss (%), Right (Treated), mean ± SEM” value (outer hair cells (OHC); 10 ng intramiddle ear, turn-3, n = 9) was 11.64 ± 10.85%. The “Neomycin-induced OHC Loss (%), Right (Treated), mean ± SEM” value (outer hair cells (OHC); 10 ng intramiddle ear, turn-4, n = 9) was 4.69 ± 2.85%, the “Neomycin-induced OHC Loss (%), Right (Treated), mean ± SEM” value (outer hair cells (OHC); 10 ng intramiddle ear, whole cochlea, n = 9) was 11.44 ± 7.27% and the “protection of hair cells against ototoxicity, in words” value (outer hair cells (OHC); 10 ng or 1 ng in the middle ear, neomycin) was “protect completely hair cells against ototoxicity”. For the same compound, the “loss of hair cells, in words (FIGS. 4A and 4B)” value (outer hair cells (OHC); all animals at 1 ng, all but one at 10 ng, neomycin and vehicle: almost complete loss) was “very minimal loss of hair cells”.
